Assay results as given in patent US20150216848A1, “COMPOUNDS THAT INHIBIT TAU PHOSPHORYLATION” (THE TRANSLATIONAL GENOMICS RESEARCH INSTITUTE, priority 2010, published 2015).
“Also recorded” adds a separate entry of the source. Read-outs that look alike come from different tables or passages of the source.

Assays:
H4 neuroglioma cell line = assay: Viability (toxicity) assay, alamar Blue; assay type: cell-based; conditions: for effect on the viability of the cells at the lower doses: 9-ethylharmine 1 μM, harmine 0.8 μM; for IC50: read-out: IC50 for viability (toxicity)
[1] = system: total tau and phosphorylated tau (12E8 pS262/pS356, pT231, pS396) in 4R0N tau overexpressing H4 neuroglioma cells; assay: Cell culture tau assay (Western blot of total and phosphorylated tau); assay type: cell-based; conditions: for effects in the cell-based tau assay: FIG. 3; for phosphorylated forms of tau (12E8 pS262/pS356, pT231, pS396): H4-tau cells, 80 nM, 800 nM and 8 μM, 96 hours; for total tau and phosphorylated forms of tau: doses up to 500 μM
recombinant human DYRK1A = target: T1, recombinant human DYRK1A (Homo sapiens, UniProt Q13627); assay type: biochemical; conditions: for IC50: recombinant DYRK1A and 4R2N tau, 1 mM ATP, read-out: IC50, inhibition of DYRK1A dependent tau phosphorylation at serine 396
T1 construct: purchased Invitrogen (DYRK1A); SignalChem (tau)

[2] = system: spatial working memory and short-term memory retention; assay: Delayed-match-to-sample asymmetrical 3-choice task; assay type: in vivo, rat
Description: (§1) Twenty-six 17 month-old Fischer-344 male rats raised at the National Institute on Aging colony at Harlan Laboratories (Indianapolis, Ind.) were used in the study. After arrival, rats were pair-housed, had food and water ad-lib, and were maintained on a 12-h light/dark cycle. Procedures were approved by the Institutional Animal Care and Use Committee, and adhered to National Institutes of Health standards.
(§2) Rats were randomly divided into three treatment groups (n at start of study, m included in final behavioral analyses): vehicle (10, 10), low-Harmine 1 mg/kg (10, 10), or high-Harmine 5 mg/kg (10, 6). […]
Spatial working memory and short-term memory retention were evaluated using a win-stay water-escape DMS asymmetrical place-learning task. […] Entry into any non-platformed arm was counted as an error. An arm entry was counted when the tip of a rat's snout reached a mark on the outside of the arm (not visible from the inside of the maze; 11 cm into the arm).
In an initial analysis, Harmine-low and Harmine-high groups were compared. […] DMS data were analyzed with an omnibus ANOVA with treatment as the between groups variable and total number of errors for each trial as repeated measures. MM data were analyzed with an omnibus ANOVA with treatment as the between groups variable and swim distance (cm) to the platform as repeated measures. […]

spatial reference memory = assay: Morris water maze; assay type: in vivo, rat; conditions: rats
Description: as §1, §2
Spatial reference memory was evaluated using the Morris Maze. […] A video camera and tracking system tracked and measured each rat's swim pathway.
(§3) In an initial analysis, Harmine-low and Harmine-high groups were compared. […] DMS data were analyzed with an omnibus ANOVA with treatment as the between groups variable and total number of errors for each trial as repeated measures. MM data were analyzed with an omnibus ANOVA with treatment as the between groups variable and swim distance (cm) to the platform as repeated measures. […] Visible platform data were further analyzed using a regression analysis with testing squad (1-3) as the predictor and mean escape latency across trials 1-6 as the criterion. […]

[3] = system: motor and visual competence; assay: Visible platform task and observed motor side effects; assay type: in vivo, rat; conditions: rats
Description: as §1
Rats were randomly divided into three treatment groups (n at start of study, m included in final behavioral analyses): vehicle (10, 10), low-Harmine 1 mg/kg (10, 10), or high-Harmine 5 mg/kg (10, 6). Nine days after arrival, animals started receiving daily subcutaneous injections at a volume of 1 ml/kg. […] Behavioral testing began after the second injection day, testing commenced approximately 30-45 minutes after injections and lasted for 6-8 hours. Animals were assigned semi-randomly to one of three testing squads of 10 animals each balanced with respect to treatment group.
Four days after MM testing, motor and visual competence were evaluated using the visible platform task. This was an adaptation of the cue-navigation version of the spatial MM task previously used to dissociate visual and motor acuity from place memory. This task was ideal due to its similarity to other spatial water-maze tasks with respect to motor and visual requirements, differing only in that animals are not required to associate the location of the platform with distal cues. […]
as §3

Molecule: CCn1c2cc(OC)ccc2c2ccnc(C)c21 [9-ethyl harmine]
- effect on the viability of the cells at the lower doses (H4 neuroglioma cell line): no detectable effect
- IC50 (H4 neuroglioma cell line): 9 µM
- reducing total tau and phosphorylated tau levels ([1]; 1 μM): significant reductions
- reducing total tau and phosphorylated tau levels ([1]; dose of 10 μM): significant effects
- IC50 (recombinant human DYRK1A): 0.4 µM

Molecule: COc1ccc2c3c([nH]c2c1)C(C)=NCC3 [harmaline]
- IC50 (H4 neuroglioma cell line): 56 µM
- effects in the cell-based tau assay [1]: relatively muted effects
- affinity relative to harmine in the in vitro phosphorylation assay (recombinant human DYRK1A): more than an order of magnitude lower in affinity than harmine

Molecule: Cc1nccc2c1[nH]c1ccccc12 [harmane]
- IC50 (H4 neuroglioma cell line): 32 µM
- effects in the cell-based tau assay [1]: relatively muted effects
- affinity relative to harmine in the in vitro phosphorylation assay (recombinant human DYRK1A): more than an order of magnitude lower in affinity than harmine

Molecule: COc1ccc2c(c1)[nH]c1c(C)nccc12 [harmine]
- effect on the viability of the cells at the lower doses (H4 neuroglioma cell line): no detectable effect
- IC50 (H4 neuroglioma cell line): 12 µM
- reducing total tau and phosphorylated tau levels ([1]; 0.8 μM): significant reductions
- levels of total tau protein ([1]; 0.8 μM and 8 μM): reduce the levels of total tau protein
- phosphorylated forms of tau (12E8 pS262/pS356, pT231, pS396) [1]: dose-dependent reduction
- phosphorylated forms of tau (12E8 pS262/pS356, pT231, pS396) ([1]; listed as Harmine): reduced the expression of each phospho-tau species tested
- reducing total tau and phosphorylated tau levels ([1]; dose of 10 μM): significant effects
- total errors on the DMS task, testing block 4 (Days 8-9), trials 2-6 ([2]; 17 month-old Fischer-344 male rats, 1 and 5 mg/kg daily subcutaneous, groups combined, vs vehicle, P=0.03): enhanced working and short-term memory; also recorded: fewer total errors
- DMS task, testing blocks 1, 2 or 3 ([2]; rats, 1 and 5 mg/kg s.c. combined): no main effects
- Morris maze distance swam to the platform, days 1-3 (spatial reference memory; 1 and 5 mg/kg s.c.): no Harmine treatment main effects
- effect on spatial reference memory (spatial reference memory; doses tested 1 and 5 mg/kg s.c.): no significant effect
- decrease of mean escape latency with each squad tested (visible platform task) ([3]; Harmine-high 5 mg/kg s.c.): roughly 11.6 seconds
- duration of motor impairments after injections ([3]; Harmine-high 5 mg/kg s.c.): 1 to 2 h
- motoric effects ([3]; harmine treatment): obvious motoric effects

Molecule: O=C(NCCN1CCOCC1)c1ccc(Cl)cc1 [moclobemide, reference compound]
- total tau and phosphorylated forms of tau [1]: did not affect tau phosphorylation
- total tau and phosphorylated forms of tau ([1]; listed as Moclobemide): did not reduce levels

Molecule: c1ccc2c(c1)[nH]c1cnccc12 [norharmane]
- IC50 (H4 neuroglioma cell line): 95 µM
- effects in the cell-based tau assay [1]: relatively muted effects
- affinity relative to harmine in the in vitro phosphorylation assay (recombinant human DYRK1A): more than an order of magnitude lower in affinity than harmine

Molecule: harmol
- IC50 (H4 neuroglioma cell line; H4 neuroglioma cell line, alamar Blue, fresh drug every 24 hours for 4 days): 18 µM
- reducing total tau and phosphorylated tau levels ([1]; dose of 10 μM): significant effects
- IC50 (recombinant human DYRK1A): 0.09 µM
